Reference: patent US20240360104A1, “TRANSCRIPTIONAL ENHANCED ASSOCIATED DOMAIN (TEAD) TRANSCRIPTION FACTOR INHIBITORS AND USES THEREOF” (Dana-Farber Cancer Institute, Inc., priority 2021, published 2024)
pIC50: −log10 of the molar value.

What follows are compounds tested on NCI-H226 cells (assay: Antiproliferation assay on NCI-H226 cells (CellTiter-Glo, 5-day treatment)). Details: Homo sapiens, 120 h, 200 cells/well, 384 plate.
Type: cell-based
Procedure: Example 1. Antiproliferation Assay on NCI-H226 Cells (200 Cells/Well, 384 Plate, 5-Day Treatment)
The compounds of the disclosure were tested for their ability in an antiproliferation assay using NCI-H226 cells (FIG. 6 and FIG. 7). The following table summarizes the IC50 values calculated from the graph of the percent inhibition versus the log of the concentration of representative compounds of the disclosure.
For 2D adherent cell viability experiment, the cells were seeded at 384-well plate (Corning, no. 3570) at the density of 200 cells/well (FIGS. 1-7). The next day, compounds were added using Janus workstation (PerkinElmer). After 5 days treatment, the cell viability was measured by CellTiter-Glo kit (Promega, no. G7570) as the manufacturer recommended.

pIC50	Compound
7.44	C=CC(=O)N1C[C@@H](Nc2ncccn2)[C@H](OCc2ccc(C(F)(F)F)cc2)C1 (relative stereo) [Compound I-1, 1-(trans-3-(pyrimidin-2-ylamino)-4-(4-(trifluoromethyl)benzyloxy)pyrrolidin-1-yl)prop-2-en-1-one]
6.02	C=CC(=O)N1C[C@@H](NS(=O)(=O)c2c(C)noc2C)[C@H](OCc2ccc(C(F)(F)F)cc2)C1 (relative stereo) [Compound V-5, N-(trans-1-acryloyl-4-(4-(trifluoromethyl)benzyloxy)pyrrolidin-3-yl)-3,5-dimethylisoxazole-4-sulfonamide]
6.27	C=CC(=O)N1C[C@@H](NS(=O)(=O)c2cccc(C#N)c2)[C@H](OCc2ccc(C(F)(F)F)cc2)C1 (relative stereo) [Compound V-6, N-(trans-1-acryloyl-4-(4-(trifluoromethyl)benzyloxy)pyrrolidin-3-yl)-3-cyanobenzenesulfonamide]
6.24	C=CC(=O)N1C[C@@H](n2cc(C(N)=O)nn2)[C@H](OCc2ccc(C(F)(F)F)cc2)C1 (relative stereo) [II-1, 1-(trans-1-acryloyl-4-(4-(trifluoromethyl)benzyloxy)pyrrolidin-3-yl)-1H-1,2,3-triazole-4-carboxamide]
6.34	C=CC(=O)N1C[C@@H](n2cc(C(=O)NC)nn2)[C@H](OCc2ccc(C(F)(F)F)cc2)C1 (relative stereo) [II-2, 1-(trans-1-acryloyl-4-(4-(trifluoromethyl)benzyloxy)pyrrolidin-3-yl)-N-methyl-1H-1,2,3-triazole-4-carboxamide]
6.76	C=CC(=O)N1C[C@@H](n2cc(-c3cncc(N)c3)nn2)[C@H](OCc2ccc(C(F)(F)F)cc2)C1 (relative stereo) [II-5, 1-(trans-3-(4-(5-aminopyridin-3-yl)-1H-1,2,3-triazol-1-yl)-4-(4-(trifluoromethyl)benzyloxy)pyrrolidin-1-yl)prop-2-en-1-one]
6.95	C=CC(=O)N1C[C@@H](n2cc(-c3ccc(N)nc3)nn2)[C@H](OCc2ccc(C(F)(F)F)cc2)C1 (relative stereo) [II-6, 1-(trans-3-(4-(6-aminopyridin-3-yl)-1H-1,2,3-triazol-1-yl)-4-(4-(trifluoromethyl)benzyloxy)pyrrolidin-1-yl)prop-2-en-1-one]
6.42	C=CC(=O)N1C[C@@H](n2cc(-c3cccc(C#N)c3)nn2)[C@H](OCc2ccc(C(F)(F)F)cc2)C1 (relative stereo) [II-7, 3-(1-(trans-1-acryloyl-4-(4-(trifluoromethyl)benzyloxy)pyrrolidin-3-yl)-1H-1,2,3-triazol-4-yl)benzonitrile]
6.71	C=CC(=O)N1C[C@@H](n2cc(C3CCN(C)CC3)nn2)[C@H](OCc2ccc(C(F)(F)F)cc2)C1 (relative stereo) [II-19, 1-(trans-3-(4-(1-methylpiperidin-4-yl)-1H-1,2,3-triazol-1-yl)-4-(4-(trifluoromethyl)benzyloxy)pyrrolidin-1-yl)prop-2-en-1-one]
6.31	C=CC(=O)N1C[C@@H](n2ccc(C(=O)NC)n2)[C@H](OCc2ccc(C(F)(F)F)cc2)C1 (relative stereo) [IV-5, 1-(trans-1-acryloyl-4-(4-(trifluoromethyl)benzyloxy)pyrrolidin-3-yl)-N-methyl-1H-pyrazole-3-carboxamide]
7.00	C=CC(=O)N1C[C@@H](n2nc(-c3cnn(C)c3)ccc2=O)[C@H](OCc2ccc(C(F)(F)F)cc2)C1 (relative stereo) [VI-2, 2-(trans-1-acryloyl-4-(4-(trifluoromethyl)benzyloxy)pyrrolidin-3-yl)-6-(1-methyl-1H-pyrazol-4-yl)pyridazin-3(2H)-one]
7.39	C=CC(=O)N1C[C@@H](n2ncc(-c3cnn(C)c3)cc2=O)[C@H](OCc2ccc(C(F)(F)F)cc2)C1 (relative stereo) [VI-3, 2-(trans-1-acryloyl-4-((4-(trifluoromethyl)benzyl)oxy)pyrrolidin-3-yl)-5-(1-methyl-1H-pyrazol-4-yl)pyridazin-3(2H)-one]
6.77	C=CC(=O)N1C[C@@H](OCc2ccc(C(F)(F)F)cc2)[C@H](c2ccc(S(C)(=O)=O)cc2)C1 (relative stereo) [VII-1, 1-(trans-3-(4-(methylsulfonyl)phenyl)-4-(4-(trifluoromethyl)benzyloxy)pyrrolidin-1-yl)prop-2-en-1-one]
6.72	C=CC(=O)N1C[C@@H](Nc2ccncn2)[C@H](OCc2ccc(C(F)(F)F)cc2)C1 (relative stereo) [VII-11, 1-(trans-3-(pyrimidin-4-ylamino)-4-(4-(trifluoromethyl)benzyloxy)pyrrolidin-1-yl)prop-2-en-1-one]
7.64	C=C(F)C(=O)N1C[C@@H](Nc2ncccn2)[C@H](OCc2ccc(C(F)(F)F)cc2)C1 [Compound I-9, 2-fluoro-1-((3R, 4R)-3-(pyrimidin-2-ylamino)-4-(4-(trifluoromethyl)benzyloxy)pyrrolidin-1-yl)prop-2-en-1-one]
6.42	C=CC(=O)N1C[C@@H](NS(=O)(=O)c2cccnc2)[C@H](OCc2ccc(C(F)(F)F)cc2)C1 [Compound V-1]
7.11	C=CC(=O)N1C[C@@H](n2ccnn2)[C@H](OCc2ccc(C(F)(F)F)cc2)C1 [II-8]
6.59	C#Cc1ccc(CO[C@@H]2CN(C(=O)C=C)C[C@H]2n2cc(-c3cccnc3)nn2)cc1 [III-6, 1-((3R,4R)-3-(4-ethynylbenzyloxy)-4-(4-(pyridin-3-yl)-1H-1,2,3-triazol-1-yl)pyrrolidin-1-yl)prop-2-en-1-one]
6.59	C=CC(=O)N1C[C@@H](OCc2ccc(C(F)(F)F)cc2)[C@H](c2cccc(S(C)(=O)=O)c2)C1 [VII-2]

Each compound was assayed on H2052 cells (assay: Antiproliferation assay using H2052 cells). Details: Homo sapiens, NCI-H2052; H2052 cells (FIG. 2).
Type: cell-based

pIC50	Compound
6.85	C=CC(=O)N1C[C@@H](n2ccnn2)[C@H](OCc2ccc(C(F)(F)F)cc2)C1 [II-8]
